Results reported in patent publication EP3345917A1, “ANTIPROTOZOAL COMPOUNDS” (Bacoba AG, priority 2017, dated 2018).
Non-standard residues stand in square brackets, D forms with d. Residues, ends and D or L forms follow the SMILES beside them. *: point of attachment. Hexenoyl(2E,4S-Me) = CC[C@H](C)/C=C/C(=O)*; Leu(3R-OH) = CC(C)[C@@H](O)[C@H](N)C(=O)O; X10 = O=C(c1ccccc1)[C@H]1CCCC[C@H]1C(=O)*; Dansyl = CN(C)c1cccc2c(S(=O)(=O)*)cccc12; NH((S)CH(Me)CH2NMe2) = C[C@@H](CN(C)C)N*; Gly(octyl) = CCCCCCCC[C@H](N)C(=O)O; X3 = O=C(c1coc(-c2ccccc2)n1)*; Lauroyl = CCCCCCCCCCCC(=O)*; NHCH2CH2NMe2 = CN(C)CCN*; Hexanoyl = CCCCCC(=O)*; Aib = CC(C)(N)C(=O)O; X12 = CCC/C=C/C(=O)*; X2 = CN(C)CCN(C)*; βAla = NCCC(=O)O

Legend:
[1] = tested on: Trypanosoma brucei rhodesiense (STIB 900 strain); test: Alamar Blue assay against Trypanosoma brucei rhodesiense grown in axenic medium; assay type: cell-based; settings: In vitro inhibition, read-out: T.b.rhod.
In short: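 T. b. rhodesiense STIB 900 cultured in axenic medium and exposed to samples in an Alamar Blue viability assay, run in triplicate. IC50 calculated from the readout; melarsoprol served as reference drug.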

[2] = tested on: Trypanosoma cruzi trypomastigote forms (Tulahuen strain); test: Intracellular Trypanosoma cruzi assay in L6-cells, beta-galactosidase/CPRG readout; assay type: cell-based; settings: In vitro inhibition, read-out: T.cruzi.
In short: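 L6 rat myoblasts infected with Tulahuen C2C4 LacZ T. cruzi; after incubation, CPRG/Nonidet substrate added and colour developed 2–6 h. Absorbance at 540 nm; IC50 calculated; triplicate tests.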

[3] = tested on: Axenically grown Leishmania donovani amastigotes (strain MHOM/ET/67/L82); test: Axenic Leishmania donovani amastigote resazurin assay; assay type: cell-based; settings: In vitro inhibition, read-out: L.don. ax
In short: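 Strain MHOM/ET/67/L82 amastigotes grown axenically and tested in triplicate by resazurin assay. Plates developed 2-4 hours, fluorescence read at 536 nm excitation/588 nm emission and expressed as percentage of negative control.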

[4] = tested on: intracellular Leishmania donovani (L.don. InMac); test: Intracellular Leishmania donovani assay (L.don. InMac); assay type: cell-based; settings: In vitro inhibition
Text: (§1) Tests were done in triplicate.

Plasmodium falciparum = test: 3H-hypoxanthine incorporation assay against Plasmodium falciparum; assay type: cell-based; settings: In vitro inhibition, read-out: P.falc NF5
Method: as §1
IC50 values were calculated by linear interpolation.

[5] = Cytotoxicity assay on L6-cells (Alamar Blue); settings: rat, Cytotox L6, Cytotoxicity against rat myoblast cells (L6)

Structure (SMILES): CCCCCCCC[C@H](NC(=O)[C@@H]1CCCN1C(=O)CCCCC)C(=O)N[C@H](C(=O)NC(C)(C)C(=O)N[C@@H](CC(C)C)C(=O)N[C@@H](CC(C)C)C(=O)NC(C)(C)C(=O)NC(C)(C)C(=O)NCCC(=O)N[C@@H](C)CN(C)C)[C@H](O)C(C)C [Compound 5517, (2S)-N-[(1S,2R)-1-[(1-{[(1S)-1-{[(1S)-1-{[1-({1-[(2-{[(2S)-1-(dimethylamino)propan-2-yl]carbamoyl}ethyl)carbamoyl]-1-methylethyl}carbamoyl)-1-methylethyl]carbamoyl}-3-methylbutyl]carbamoyl}-3-methylbutyl]carbamoyl}-1-methylethyl)carbamoyl]-2-hydroxy-3-methylbutyl]-2-{[(2S)-1-hexanoylpyrrolidin-2-yl]formamido}decanamide] (Hexanoyl-P[Gly(octyl)][Leu(3R-OH)][Aib]LL[Aib][Aib][βAla]-{NH((S)CH(Me)CH2NMe2)})
- IC50 [1]: 0.0001 µM
- IC50 [2]: 0.0453 µM
- IC50 [3]: 0.0009 µM
- IC50 [4]: 0.142 µM
- IC50 (Plasmodium falciparum): 0.0011 µM
- IC50 at 70 h [5]: 0.338 µM

Structure (SMILES): CCCCCCCC[C@H](NC(=O)[C@@H]1CCCN1C(=O)CCCCC)C(=O)N[C@@H](CC(C)C)C(=O)NC(C)(C)C(=O)N[C@@H](CC(C)C)C(=O)N[C@@H](CC(C)C)C(=O)NC(C)(C)C(=O)NC(C)(C)C(=O)NCCC(=O)NCCN(C)C [Compound 5643, (2S)-N-[(1S)-1-[(1-{[(1S)-1-{[(1S)-1-{[1-({1-[(2-{[2-(dimethylamino)ethyl]carbamoyl}ethyl)carbamoyl]-1-methylethyl}carbamoyl)-1-methylethyl]carbamoyl}-3-methylbutyl]carbamoyl}-3-methylbutyl]carbamoyl}-1-methylethyl)carbamoyl]-3-methylbutyl]-2-{[(2S)-1-hexanoylpyrrolidin-2-yl]formamido}decanamide] (Hexanoyl-P[Gly(octyl)]L[Aib]LL[Aib][Aib][βAla]-NHCH2CH2NMe2)
- IC50 [1]: 0.0049 µM
- IC50 [2]: 0.0898 µM
- IC50 [3]: 0.0036 µM
- IC50 [4]: 0.107 µM
- IC50 (Plasmodium falciparum): 0.003 µM
- IC50 at 70 h [5]: 0.862 µM

Structure (SMILES): CCCCCCCC[C@H](NC(=O)[C@@H](NC(=O)[C@@H]1CCCN1C(=O)/C=C/[C@@H](C)CC)[C@H](O)C(C)C)C(=O)NC(C)(C)C(=O)N[C@@H](CC(C)C)C(=O)N[C@@H](CC(C)C)C(=O)NC(C)(C)C(=O)NC(C)(C)C(=O)NCCC(=O)N[C@@H](C)CN(C)C [Compound 5560, (2S)-N-(1-{[(1S)-1-{[(1S)-1-{[1-({1-[(2-{[(2S)-1-(dimethylamino)propan-2-yl]carbamoyl}ethyl)carbamoyl]-1-methylethyl}carbamoyl)-1-methylethyl]carbamoyl}-3-methylbutyl]carbamoyl}-3-methylbutyl]carbamoyl}-1-methylethyl)-2-[(2S,3R)-3-hydroxy-4-methyl-2-{[(2S)-1-[(2E,4S)-4-methylhex-2-enoyl]pyrrolidin-2-yl]formamido}pentanamido]decanamide] ({Hexenoyl(2E,4S-Me)}-P[Leu(3R-OH)][Gly(octyl)][Aib]LL[Aib][Aib][βAla]-{NH((S)CH(Me)CH2NMe2)})
- IC50 [1]: 0.0002 µM
- IC50 [2]: 0.0345 µM
- IC50 [3]: 0.0008 µM
- IC50 [4]: 0.0254 µM
- IC50 (Plasmodium falciparum): 0.0011 µM
- IC50 at 70 h [5]: 0.791 µM

Structure (SMILES): CCCCCCCC[C@H](NC(=O)c1coc(-c2ccccc2)n1)C(=O)N[C@@H](CC(C)C)C(=O)NC(C)(C)C(=O)N[C@@H](CC(C)C)C(=O)N[C@@H](CC(C)C)C(=O)NC(C)(C)C(=O)NC(C)(C)C(=O)NCCC(=O)N[C@@H](C)CN(C)C [Compound 5943, (2S)-N-[(1S)-1-[(1-{[(1S)-1-{[(1S)-1-{[1-({1-[(2-{[(2S)-1-(dimethylamino)propan-2-yl]carbamoyl}ethyl)carbamoyl]-1-methylethyl}carbamoyl)-1-methylethyl]carbamoyl}-3-methylbutyl]carbamoyl}-3-methylbutyl]carbamoyl}-1-methylethyl)carbamoyl]-3-methylbutyl]-2-[(2-phenyl-1,3-oxazol-4-yl)formamido]decanamide] (X3-[Gly(octyl)]L[Aib]LL[Aib][Aib][βAla]-{NH((S)CH(Me)CH2NMe2)})
- IC50 [1]: 0.0005 µM
- IC50 [2]: 0.156 µM
- IC50 [3]: 18.7 µM
- IC50 [4]: < 0.0361 µM
- IC50 (Plasmodium falciparum): 0.0153 µM
- IC50 at 70 h [5]: 0.552 µM

Structure (SMILES): CCC/C=C/C(=O)N1CCC[C@H]1C(=O)N[C@@H](CCCCCCCC)C(=O)N[C@H](C(=O)NC(C)(C)C(=O)N[C@@H](CC(C)C)C(=O)N[C@@H](CC(C)C)C(=O)NC(C)(C)C(=O)NC(C)(C)C(=O)NCCC(=O)N[C@@H](C)CN(C)C)[C@H](O)C(C)C [Compound 5514, (2S)-N-[(1S,2R)-1-[(1-{[(1S)-1-{[(1S)-1-{[1-({1-[(2-{[(2S)-1-(dimethylamino)propan-2-yl]carbamoyl}ethyl)carbamoyl]-1-methylethyl}carbamoyl)-1-methylethyl]carbamoyl}-3-methylbutyl]carbamoyl}-3-methylbutyl]carbamoyl}-1-methylethyl)carbamoyl]-2-hydroxy-3-methylbutyl]-2-{[(2S)-1-[(2E)-hex-2-enoyl]pyrrolidin-2-yl]formamido}decanamide] (X12-P[Gly(octyl)][Leu(3R-OH)][Aib]LL[Aib][Aib][βAla]-{NH((S)CH(Me)CH2NMe2)})
- IC50 [1]: 0.0002 µM
- IC50 [2]: 0.0201 µM
- IC50 [3]: 0.0004 µM
- IC50 [4]: 0.0968 µM
- IC50 (Plasmodium falciparum): 0.0008 µM
- IC50 at 70 h [5]: 0.316 µM

Structure (SMILES): CCCCCCCCCCCC(=O)N1CCC[C@H]1C(=O)N[C@@H](CCCCCCCC)C(=O)N[C@@H](CC(C)C)C(=O)NC(C)(C)C(=O)N[C@@H](CC(C)C)C(=O)N[C@@H](CC(C)C)C(=O)NC(C)(C)C(=O)NC(C)(C)C(=O)NCCC(=O)N[C@@H](C)CN(C)C [Compound 5651, (2S)-N-[(1S)-1-[(1-{[(1S)-1-{[(1S)-1-{[1-({1-[(2-{[(2S)-1-(dimethylamino)propan-2-yl]carbamoyl}ethyl)carbamoyl]-1-methylethyl}carbamoyl)-1-methylethyl]carbamoyl}-3-methylbutyl]carbamoyl}-3-methylbutyl]carbamoyl}-1-methylethyl)carbamoyl]-3-methylbutyl]-2-{[(2S)-1-dodecanoylpyrrolidin-2-yl]formamido}decanamide] (Lauroyl-P[Gly(octyl)]L[Aib]LL[Aib][Aib][βAla]-{NH((S)CH(Me)CH2NMe2)})
- IC50 [1]: 0.0033 µM
- IC50 [2]: 1.37 µM
- IC50 [3]: 0.053 µM
- IC50 [4]: 0.707 µM
- IC50 (Plasmodium falciparum): 0.0008 µM
- IC50 at 70 h [5]: 0.498 µM

Structure (SMILES): CCCCCCCC[C@H](NC(=O)[C@@H]1CCCC[C@@H]1C(=O)c1ccccc1)C(=O)N[C@@H](CC(C)C)C(=O)NC(C)(C)C(=O)N[C@@H](CC(C)C)C(=O)N[C@@H](CC(C)C)C(=O)NC(C)(C)C(=O)NC(C)(C)C(=O)NCCC(=O)N[C@@H](C)CN(C)C [Compound 5945, (2S)-2-{[(1R,2S)-2-benzoylcyclohexyl]formamido}-N-[(1S)-1-[(1-{[(1S)-1-{[(1S)-1-{[1-({1-[(2-{[(2S)-1-(dimethylamino)propan-2-yl]carbamoyl}ethyl)carbamoyl]-1-methylethyl}carbamoyl)-1-methylethyl]carbamoyl}-3-methylbutyl]carbamoyl}-3-methylbutyl]carbamoyl}-1-methylethyl)carbamoyl]-3-methylbutyl]decanamide] (X10-[Gly(octyl)]L[Aib]LL[Aib][Aib][βAla]-{NH((S)CH(Me)CH2NMe2)})
- IC50 [1]: 0.0004 µM
- IC50 [2]: 0.0343 µM
- IC50 [3]: 42.7 µM
- IC50 [4]: < 0.0347 µM
- IC50 (Plasmodium falciparum): 42.6 µM
- IC50 at 70 h [5]: 0.144 µM

Structure (SMILES): CCCCCCCC[C@H](NC(=O)[C@@H]1CCCN1C(=O)CCCCC)C(=O)N[C@@H](CC(C)C)C(=O)NC(C)(C)C(=O)N[C@@H](CC(C)C)C(=O)N[C@@H](CC(C)C)C(=O)NC(C)(C)C(=O)NC(C)(C)C(=O)NCCC(=O)N(C)CCN(C)C [Compound 5644, (2S)-N-[(1S)-1-[(1-{[(1S)-1-{[(1S)-1-{[1-({1-[(2-{[2-(dimethylamino)ethyl](methyl)carbamoyl}ethyl)carbamoyl]-1-methylethyl}carbamoyl)-1-methylethyl]carbamoyl}-3-methylbutyl]carbamoyl}-3-methylbutyl]carbamoyl}-1-methylethyl)carbamoyl]-3-methylbutyl]-2-{[(2S)-1-hexanoylpyrrolidin-2-yl]formamido}decanamide] (Hexanoyl-P[Gly(octyl)]L[Aib]LL[Aib][Aib][βAla]-X2)
- IC50 [1]: 0.208 µM
- IC50 [2]: 1.47 µM
- IC50 [3]: 0.148 µM
- IC50 [4]: 0.844 µM
- IC50 (Plasmodium falciparum): 0.026 µM
- IC50 at 70 h [5]: 1.25 µM

Structure (SMILES): CCCCCCCC[C@H](NC(=O)[C@@H]1CCCN1S(=O)(=O)c1cccc2c(N(C)C)cccc12)C(=O)N[C@@H](CC(C)C)C(=O)NC(C)(C)C(=O)N[C@@H](CC(C)C)C(=O)N[C@@H](CC(C)C)C(=O)NC(C)(C)C(=O)NC(C)(C)C(=O)NCCC(=O)N[C@@H](C)CN(C)C [Compound 5765, (2S)-2-{[(2S)-1-{[5-(dimethylamino)naphthalen-1-yl]sulfonyl}pyrrolidin-2-yl]formamido}-N-[(1S)-1-[(1-{[(1S)-1-{[(1S)-1-{[1-({1-[(2-{[(2S)-1-(dimethylamino)propan-2-yl]carbamoyl}ethyl)carbamoyl]-1-methylethyl}carbamoyl)-1-methylethyl]carbamoyl}-3-methylbutyl]carbamoyl}-3-methylbutyl]carbamoyl}-1-methylethyl)carbamoyl]-3-methylbutyl]decanamide] (Dansyl-P[Gly(octyl)]L[Aib]LL[Aib][Aib][βAla]-{NH((S)CH(Me)CH2NMe2)})
- IC50 [1]: 0.0016 µM
- IC50 [2]: 0.126 µM
- IC50 [3]: 0.0043 µM
- IC50 [4]: 0.203 µM
- IC50 (Plasmodium falciparum): 0.001 µM
- IC50 at 70 h [5]: 0.25 µM
